# Key:
# [1] = particle size distribution measurement by laser diffraction; format: physicochemical; conditions: milled active substance
# Source text: The value X90 refers to the 90% value of the volume distribution measured using a laser diffractometer. In other words, for the purposes of the present invention, the X90 value denotes the particle size below which 90% of the quantity of particles is found based on the volume distribution. Analogously the value X50 refers to the 50% value (median) of the volume distribution measured using a laser diffractometer. In other words, for the purposes of the present invention, the X50 value denotes the particle size below which 50% of the quantity of particles is found based on the volume distribution. Analogously the value X10 refers to the 10% value of the volume distribution measured using a laser diffractometer. In other words, for the purposes of the present invention, the X10 value denotes the particle size below which 10% of the quantity of particles is found based on the volume distribution.
# Preferably all X90, X50, X10 values hereinbefore and hereinafter are by volume and determined by laser-diffraction method, in particular low angle laser light scattering, i.e. Fraunhofer diffraction. A preferred test is described in the experimental section. The laser diffraction method is sensitive to the volume of a particle and provides a volume-average particle size, which is equivalent to the weight-average particle size if the density is constant. The skilled artesian knows that the results of the particle size distribution determination by one technique can be correlated with that from another technique, for example on an empirical basis by routine experimentation. Alternatively the particle size distribution in the pharmaceutical composition or dosage form can be determined by microscopy, in particular electron microscopy or scanning electron microscopy.
# Particle size distribution measurement is performed for example via light scattering or laser diffraction technique. To determine the particle size the powder is fed into a laser diffraction spectrometer for example by means of a dispersing unit. The test method is described below in detail: • Equipment: Laser Diffraction Spectrometer Sympatec HELOS Particle Sizer. • Lens: R31 (0.5/0.9 μm-175 μm) • Sample Dispersing Unit: Dry disperser RODOS/M • Vacuum: Nilfisk • Feeder: ASPIROS • Feed Velocity: 60.00 mm/s • Primary pressure: 2.00 bar • Injector depression: maximize (mbar)2 • Reference Measurement: 10 seconds • Cycle Time: 100 msec • Trigger Conditions: Start 0.0 seconds after optical concentration ≥1% valid always • Stop after 5.0 seconds optical concentration ≤1% or after 30 seconds real time • Optical Concentration: Approximately range 3-12% • Evaluation: HRLD • Sample Size: Approximately 100 mg • Number of measurements: 2 (duplicate)
# The instrument is set up according to the manufacturer's recommendation and using the manufacturer provided software. The sample container is thoroughly mixed and tumbled prior to removing a portion of the sample to ensure that a representative sample is tested. Duplicate samples are prepared by using a spatula to transfer approximately 100 mg of a sample into the ASPIROS glass vials and cap the vials. The capped cials are placed into the feeder.
# blood glucose = experiment: oral glucose tolerance test in ZDF rats; format: in vivo, rat; conditions: oral glucose load 2 g/kg 30 min later
# Protocol: According to a first example an oral glucose tolerance test is performed in overnight fasted 9-weeks old male Zucker Diabetic Fatty (ZDF) rats (ZDF/Crl-Lepr^fa). A pre-dose blood sample is obtained by tail bleed. Blood glucose is measured with a glucometer, and the animals are randomized for blood glucose (n=5/group). Subsequently, the groups receive a single oral administration of either vehicle alone (0.5% aqueous hydroxyethylcellulose containing 3 mM HCl and 0.015% Polysorbat 80) or vehicle containing the SGLT2 inhibitor. The animals receive an oral glucose load (2 g/kg) 30 min after compound administration. Blood glucose is measured in tail blood 30 min, 60 min, 90 min, 120 min, and 180 min after the glucose challenge. Glucose excursion is quantified by calculating the reactive glucose AUC. The data are presented as mean±SEM. The two-sided unpaired Student t-test is used for statistical comparison of the control group and the active groups.
# Compound (I.9) (1-chloro-4-(β-D-glucopyranos-1-yl)-2-[4-((S)-tetrahydrofuran-3-yloxy)-benzyl]-benzene) was orally administered to ZDF rats at doses of 0.3 mg/kg, 3 mg/kg or 30 mg/kg body weight. Compound (I.9) reduced glucose excursion by 15% at 0.3 mg/kg (not significant), by 62% at 3 mg/kg (p<0.001) and by 89% at 30 mg/kg (p<0.001).
# serum uric acid = experiment: twelve week study of serum uric acid levels in patients with manifest type 2 diabetes mellitus; format: in vivo, human; conditions: type 2 diabetes patients; for serum uric acid level, 12 weeks: after 12 weeks
# Protocol: In a twelve week study of patients with manifest type 2 diabetes mellitus serum uric acid levels were measured at baseline and every 4 weeks in patients randomized to an administration of the compound (I.9) of 5 mg, 10 mg, or 25 mg or placebo or metformin 2000 mg, daily for 12 weeks.
# [2] = body weight in cafeteria-diet obese female Wistar rats; format: in vivo, rat; conditions: 28 days
# Protocol: All experimental procedures concerning the use of laboratory animals were carried out under a Home Office Certificate of Designation. An animal model of obesity was used to study the effect of the compound (I.9) on body weight and total body fat content. For this, female Wistar rats were made obese by exposure to a simplified cafeteria diet containing high fat chow, chocolate and ground peanuts for approximately 24 weeks. Following the induction of obesity, rats were given vehicle (0.5% aqueous hydroxyethyl-cellulose) for 7 days and then dosed orally once daily with either vehicle or 3 mg/kg or 10 mg/kg compound (I.9) for 28 days. For the duration of the study rats were maintained on the cafeteria diet. Therein “Cpd A” denotes the glucopyranosyl-substituted benzene derivative (I.9) at a dose of 3 mg/kg or 10 mg/kg. Results are means (adjusted for differences between the body weights of the different treatment groups at baseline (Day 1))±SEM (calculated from the residuals of the statistical model), n=10. After 28 day daily oral treatment with the compound (I.9) a reduced body weight compared to the vehicle-treated control group was observed. Body weight data was analysed by analysis of covariance with body weights on Day 1 as covariate. […]
# [3] = total body fat content (FoodScan NIR) in cafeteria-diet obese female Wistar rats; format: in vivo, rat; conditions: 10 mg/kg orally once daily, end of study Day 34, p<0.05
# Protocol: All experimental procedures concerning the use of laboratory animals were carried out under a Home Office Certificate of Designation. An animal model of obesity was used to study the effect of the compound (I.9) on body weight and total body fat content. For this, female Wistar rats were made obese by exposure to a simplified cafeteria diet containing high fat chow, chocolate and ground peanuts for approximately 24 weeks. Following the induction of obesity, rats were given vehicle (0.5% aqueous hydroxyethyl-cellulose) for 7 days and then dosed orally once daily with either vehicle or 3 mg/kg or 10 mg/kg compound (I.9) for 28 days. […] Results are means (adjusted for differences between the body weights of the different treatment groups at baseline (Day 1))±SEM (calculated from the residuals of the statistical model), n=10. […] Body weight data was analysed by analysis of covariance with body weights on Day 1 as covariate. […]
# At the end of the study on Day 34 (24 hours after the last treatment on Day 33) all rats were terminated, the body exsanguinated and the following tissues removed: the caudate liver lobe, the pancreas, the left kidney and one soleus muscle. Body composition (body fat, protein and water) was determined using the FoodScan NIR (near infra-red) meat analyser (Foss UK). […] Standard errors of the mean (SEM) are calculated from the residuals of the statistical model. […]
# HbA1c = conditions: metformin on its own, in the diabetic; cited from earlier work
structure (smiles),measurement,setting,value
OC[C@H]1O[C@@H](c2ccc(Cl)c(Cc3ccc(O[C@H]4CCOC4)cc3)c2)[C@H](O)[C@@H](O)[C@@H]1O [Active substance Batch 1],"X10 (particle size, volume distribution)",[1],1.8 μm
same,"X50 (particle size, volume distribution)",[1],18.9 μm
same,"X90 (particle size, volume distribution)",[1],45.3 μm
OC[C@H]1O[C@@H](c2ccc(Cl)c(Cc3ccc(O[C@H]4CCOC4)cc3)c2)[C@H](O)[C@@H](O)[C@@H]1O [Active substance Batch 2],"X10 (particle size, volume distribution)",[1],1.7 μm
same,"X50 (particle size, volume distribution)",[1],12.1 μm
same,"X90 (particle size, volume distribution)",[1],25.9 μm
"OC[C@H]1O[C@@H](c2ccc(Cl)c(Cc3ccc(O[C@H]4CCOC4)cc3)c2)[C@H](O)[C@@H](O)[C@@H]1O [Compound (I.9), 1-chloro-4-(β-D-glucopyranos-1-yl)-2-[4-((S)-tetrahydrofuran-3-yloxy)-benzyl]-benzene]",reduction of glucose excursion (reactive glucose AUC),"blood glucose; single oral dose 0.3 mg/kg, not significant",15%
same,reduction of glucose excursion (reactive glucose AUC),"blood glucose; single oral dose 3 mg/kg, p<0.001",62%
same,reduction of glucose excursion (reactive glucose AUC),"blood glucose; single oral dose 30 mg/kg, p<0.001",89%
same,"serum uric acid level, baseline",serum uric acid; 5 mg daily group,5.5 mg/dL
same,"serum uric acid level, 12 weeks",serum uric acid; 5 mg daily,5.0 mg/dL
same,"serum uric acid level, baseline",serum uric acid; 10 mg daily group,5.3 mg/dL
same,"serum uric acid level, 12 weeks",serum uric acid; 10 mg daily,4.7 mg/dL
same,"serum uric acid level, baseline",serum uric acid; 25 mg daily group,5.4 mg/dL
same,"serum uric acid level, 12 weeks",serum uric acid; 25 mg daily,4.7 mg/dL
same,reduction in serum uric acid levels compared to baseline,"serum uric acid; all doses (5 mg, 10 mg, 25 mg daily), 12 weeks",0.5 to 0.7 mg/dL
same,reduction of body weight versus vehicle control,[2]; 3 mg/kg orally once daily,4.1%
same,reduction of body weight versus vehicle control,"[2]; 10 mg/kg orally once daily, significant (p<0.05)",6.9%
same,total body fat content (weight per rat) in comparison to vehicle-treated animals,[3],significantly lower
"CN(C)C(=N)N=C(N)N [Metformin, reference compound]","serum uric acid level, baseline",serum uric acid; 2000 mg daily group,5.6 mg/dL
same,change of serum uric acid levels compared to baseline,"serum uric acid; 2000 mg daily, 12 weeks",increased
same,"serum uric acid level, 12 weeks",serum uric acid; 2000 mg daily,6.2 mg/dL
same,average improvement in the HbA1c value,HbA1c,1.0-1.5%

# Reference: patent US12527810B2, “Pharmaceutical composition, methods for treating and uses thereof” (Boehringer Ingelheim International GmbH, priority 2009, dated 2026)
